Tests used:
[1] = 10 patients, nine with disease progression on prior immunotherapy; cited from earlier work
[2] = test system: urothelial cancer; experiment: Best response to prior chemotherapy before study enrolment, per investigator assessment; type: in vivo, human; details: first-line chemotherapy before study enrolment; across all regimens
Excerpt: Across all regimens, 184 patients had received first-line platinum-based chemotherapy, 83 had received second-line chemotherapy, and 24 had received third-line chemotherapy before study enrolment.

Compound	patients who responded [1] [%]	best ORR per investigator assessment [2] [%]
COCc1c(-c2cc3cc(C)cc(OC)c3s2)c2c(N)ncnn2c1CN1CCNC(=O)C1 [rogaratinib]	30	
gemcitabine plus cisplatin		35
